According to patent US20050238679A1, “Taurine-containing preparations for improving the skin barrier” (Beiersdorf AG, priority 2004, published 2005):

Test: interfacial tension towards water as measure of polarity of lipids
Assay type: physicochemical
Conditions: lipid/oil component against water; regarded as polar if less than 30 mN/m
Excerpt: Oils and fats differ from one another in their polarity, which is difficult to define. It has already been proposed to adopt the interfacial tension towards water as a measure of the polarity index of an oil or of an oily phase. Then, the lower the interfacial tension between this oily phase and water, the greater the polarity of the oily phase in question. According to the invention, the interfacial tension is regarded as one possible measure of the polarity of a given oil component.
The interfacial tension is the force which acts on an imaginary line one meter in length in the interface between two phases. The physical unit for this interfacial tension is conventionally calculated from the force/length relationship and is usually expressed in mN/m (millinewtons divided by meters). It has a positive sign if it endeavours to reduce the interface. In the converse case, it has a negative sign. For the purposes of the present invention, lipids are regarded as polar if their interfacial tension towards water is less than 30 mN/m.
Nonpolar oils are, for example, those which are chosen from the group of branched and unbranched hydrocarbons and hydrocarbon waxes, in particular Vaseline (petrolatum), paraffin oil, squalane and squalene, polyolefins and hydrogenated polyisobutenes. Among the polyolefins, polydecenes are the preferred substances.

Compound	interfacial tension towards water [mN/m]
CCCCCCCCCCCCCCCCCC(=O)OC(C)C [Isopropyl stearate, Isopropyl Stearate]	21.9
CCCCCCCCOC(=O)CCCCCCCCCCCCCCC(C)C [PRISORINE ® 2036, Octyl Isostearate]	29.7
CCCCCCCC(=O)OCC(COC(=O)CCCCCCC)OC(=O)CCCCCCC [TRIVENT ® OCG, Tricaprylin]	20.2
CCCCCCCCCCCCCC(=O)OCC(CCCCCCCC)CCCCCCCCCC (stereo not shown) [MOD, Octyldodeceyl Myristate]	22.1
CCCCCCCCCCCCCCCCCCOC(=O)CCCCCC [TEGOSOFT ® SH, Stearyl Heptanoate]	28.7
CCCCCCCCCCCCCCCCCC(=O)OCCCCCCCC [CETIOL ® 868, Octyl Stearate]	28.4

Test: stability of taurine under customary storage conditions
Assay type: physicochemical
Conditions: various pH values (5<pH<7), customary storage conditions (+6° C., −10° C., rocking test)
Excerpt: On account of its solubility in water, it is used in various bases such as O/W creams, W/O creams, PIT emulsions, hydrous sticks, hydrodispersions etc. […] Dry skin has a reduced skin barrier. Taurine brings about an increase in the skin moisturization of cosmetic preparations. Moisturization of dry skin brings about a strengthening of the skin barrier, which means that foreign substances can penetrate less easily through the skin into the deeper skin layers. However, taurine applied to the skin penetrates […] into the lower skin layers.

Compound	stability
NCCS(=O)(=O)O [Taurine, 2-aminoethanesulphonic acid]	very good stability
